Measured values taken from paper PMC7160673, “A Degenerate Peptide Library Approach to Reveal Sequence Determinants of Methyllysine-Driven Protein Interactions” (Frontiers in Cell and Developmental Biology, 2020).
Where a SMILES comes first, the peptide text is derived from it. Where no end group is shown, it is not given here. [ ]: non-standard residue; d: D form. The star is where a group is joined. 5FAM = O=C1OC2(c3ccc(O)cc3Oc3cc(O)ccc32)c2ccc(C(=O)*)cc21; Lys(Me3) = C[N+](C)(C)CCCC[C@H](N)C(=O)O; Peg = not defined here

What was measured:
Assay type in all cases: binding
[1] = biological target: T1, CDYL2 chromo (Homo sapiens, UniProt Q8N8U2); assay: Fluorescence polarization assay, CDYL2 chromo; conditions: 10 nM N-terminal FAM peptide, 25 mM HEPES pH 7.5, 100 mM NaCl, 0.05% NP-40, average of 4 measurements from 2 independent experiments, error SD (Figure 4C)
T1 construct: 1-75; made in house; host or cells: E. coli BL21
T1 sequence (Q8N8U2 1-75): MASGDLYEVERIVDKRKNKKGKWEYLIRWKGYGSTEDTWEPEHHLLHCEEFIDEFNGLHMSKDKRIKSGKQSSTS
Description: Plasmids encoding N-terminal GST fusions of each reader domain (Supplementary Table S1) were transformed into BL21 E. coli and protein expression was induced with 0.5 mM IPTG at 16°C for 6–16 h. Induced bacterial pellets were suspended in 30 mL cold 1× PBS supplemented with 1 mM DTT and 1 mM PMSF. Next, bacteria were incubated with lysozyme (Thermo #89833 LOT#ta262343) and 1 μL of Pierce universal nuclease (Pierce #88702 LOT#00775219) on ice for 30 min followed by 3 rounds of sonication (30 s sonication with 10 s rest, all on ice) using a Qsonica ultrasonic processor (500 W 20 kHz with 1/8” microtip) at 40% amplitude. Lysed bacteria were centrifuged at 38465 rcf for 45 min at 4°C. Cleared supernatant was incubated with 5 mL of Glutathione resin (Thermo #16101 LOT#UD285112) with rotation at 4°C for 16 h. Bound protein was washed 3× with 10 mL cold 1× PBS and eluted twice with 10 mL of 25 mM HEPES pH 7.5, 10 mM L-glutathione (Sigma), and 100 mM NaCl. Protein was concentrated by centrifugation at 1,500 rpm on a Sorvall Legend X1 centrifuge in Amicon Ultra-15 centrifugal filter units (UFC#903024). Protein was resuspended in 25 mM HEPES pH 7.5 and 100 mM NaCl and concentrated by centrifugation as above three times. Protein was quantified by absorbance measurement at 280 nm divided by the computed extinction coefficient (ExPASy) ([Gasteiger et al., 2003]) of the GST-tagged protein domain.
Peptides functionalized with N-terminal 5-carboxyfluorescin (FAM) were synthesized by Genscript. All 7-mer motifs were synthesized with flanking glycines to mimic the Kme-OPL design. Binding assays were done in black 384 well plates (Corning #3575). […] Polarization was measured on a Synergy Neo fluorescence plate reader (Biotek) with a 485 ± 10 nm excitation filter and a 528 ± 10 nm emission filter. […] Anisotropy units (A) were calculated using the equation A = (2P)/(3-P). Dissociation constants were determined by non-linear regression analysis of anisotropy curves by specific binding with Hill slope in GraphPad version 8.3.0.

[2] = tested on: Abcam #ab8895, anti-H3K4me1; assay: Histone peptide microarray, Abcam ab8895; conditions: Abcam ab8895 (anti-H3K4me1) hits, average signal per peptide
[3] = biological target: T2, MPP8 chromo (Homo sapiens, UniProt Q99549); assay: Histone peptide microarray, MPP8 chromo; conditions: normalized histone peptide array signal, hits; hybridization with 1 M MPP8 chromo (so in the source); two subarrays
T2 construct: 50-118; made in house; host or cells: E. coli BL21
T2 sequence (Q99549 50-118): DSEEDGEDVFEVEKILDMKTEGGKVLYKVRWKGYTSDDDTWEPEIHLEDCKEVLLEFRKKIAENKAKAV
Description: (§1) Peptide microarrays were fabricated using an Aushon 2470 microarrayer and used as described ([Cornett et al., 2017]) with the following modifications. Protein and antibody hybridization steps were performed in buffer containing 25 mM HEPES pH 7.5, 100 mM NaCl, 0.5% BSA (w/v), and 0.1% NP-40. Slides were washed 3 × 5 min in PBS supplemented with 0.1% Tween-20 between each hybridization step. Antibodies used were primary anti-GST (Sigma #7781, 1:2,000 dilution) and an AlexaFluor 647-labeled secondary antibody (Life Technologies A-21245, 1:5,000 dilution). […] Full lists of peptides queried by array analysis are in Supplementary Table S2.

[4] = tested on: CST 9733 (anti-H3K27me3); assay: Histone peptide microarray, CST 9733; conditions: histone peptide array signal normalized to the highest peptide average per subarray, hits; CST 9733 LOT:14 dilution 1:5,000
[5] = tested on: Millipore #07-449, anti-H3K27me3; assay: Histone peptide microarray, Millipore 07-449; conditions: Millipore 07-449 (anti-H3K27me3) hits, average signal per peptide
[6] = tested on: ABClonal #A2355, anti-H3K4me1; assay: Histone peptide microarray, ABclonal A2355; conditions: Abclonal A2355 (anti-H3K4me1) hits
[7] = biological target: T1, CDYL2 chromo; assay: Histone peptide microarray, CDYL2 chromo; conditions: normalized histone peptide array signal, hits; hybridization with 1 M CDYL2 chromo (so in the source); two subarrays
Description: as §1

[8] = tested on: Active Motif #39161, anti-H3K9me3; assay: Histone peptide microarray, Active Motif 39161; conditions: Active Motif 39161 (anti-H3K9me3) hits
[9] = tested on: 53BP1 TTD; assay: Histone peptide microarray, 53BP1 TTD; conditions: 53BP1 TTD hits, average signal per peptide
Outline: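 Histone peptides were printed as microarrays and probed with protein or antibody in 25 mM HEPES pH 7.5, 100 mM NaCl, 0.5% BSA (w/v), 0.1% NP-40. Between steps, slides were washed 3 × 5 min in PBS with 0.1% Tween-20. Bound GST-tagged protein was detected with anti-GST (1:2,000), then AlexaFluor 647 secondary (1:5,000).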

Molecule | Kd [1] | Avg Signal [2] | Avg Signal [3] | Avg Signal [4] | Avg Signal [5] | Avg Signal [6] | Avg Signal [7] | Avg Signal [8] | Avg Signal [9]
C[C@H](NC(=O)[C@H](CCCCN)NC(=O)CN)C(=O)N[C@@H](CCCCN)C(=O)N[C@@H](CCCC[N+](C)(C)C)C(=O)N[C@H](C(=O)NCC(=O)N[C@@H](CCCCN)C(=O)NCC(=O)O)[C@@H](C)O [GKAK(Kme3)TGKG] (H-GKAK[Lys(Me3)]TGKG-OH) | 3.6 ± 0.73 µM |  |  |  |  |  |  |  | 
C[C@H](NC(=O)[C@@H](NC(=O)CNC(=O)c1ccc2c(c1)C(=O)OC21c2ccc(O)cc2Oc2cc(O)ccc21)[C@@H](C)O)C(=O)N[C@@H](CCCNC(=N)N)C(=O)N[C@@H](CCCC[N+](C)(C)C)C(=O)N[C@@H](CO)C(=O)N[C@H](C(=O)NCC(=O)NCC(=O)O)[C@@H](C)O [GTAR(Kme3)STGG] (5FAM-GTAR[Lys(Me3)]STGG-OH) | 18.4 ± 6 µM |  |  |  |  |  |  |  | 
C[C@H](NC(=O)[C@H](Cc1c[nH]c2ccccc12)NC(=O)CN)C(=O)N[C@@H](Cc1ccc(O)cc1)C(=O)N[C@@H](CCCC[N+](C)(C)C)C(=O)N[C@H](C(=O)NCC(=O)N[C@@H](CCCCN)C(=O)NCC(=O)O)[C@@H](C)O [GWAY(Kme3)TGKG] (H-GWAY[Lys(Me3)]TGKG-OH) | 0.1 ± 0.0066 µM |  |  |  |  |  |  |  | 
AR(Me2a)TKQTARK(Me2)STGGKAPRKQL-Peg-Biotin [H3.1R2me2aK9me2] |  | 0.226 | 0.8941 | 0.0005026 | 0.0074 | 0.01048 | 0.425 |  | 
ARTK(Me2)QTARK(Me2)STGGKA-Peg-Biot [H3.1K4me2K9me2] |  | 0.2534 | 0.2515 | 0.0004919 |  | 0.2431 | 0.1337 | 0.001292 | 
ARTK(Me3)QTAR(Me2s)K(Me3)STGGKAPRKQL-K(Biot)-NH2 [H3.1K4me3R8me2sK9me3] |  |  | 0.7903 | 0.01805 | 0.05738 | 0.001264 | 0.4093 | 0.5974 | 0.09278
ARTK(Me3)QTARK(Me3)STGGKAPRKQL-K(Biot)-NH2 [H3.1K4me3K9me3] |  | 0.01482 | 0.8973 | 0.02074 | 0.1282 | 0.008666 | 0.4091 | 1 | 0.1303
ARTK(Me)QTARK(Me2)STGGKA-Peg-Biot [H3.1K4me1K9me2] |  | 0.7578 | 0.4754 | 0.0001122 | 0.001269 | 0.6304 | 0.2405 | 0.004399 | 
ARTKQTAR(Me2a)K(Me3)STGGKAPRKQL-K(Biot)-NH2 [H3.1R8me2aK9me3] |  | 0.1096 | 0.8359 | 0.008858 | 0.01827 | 0.0005778 | 0.3975 | 0.6713 | 0.2106
ARTKQTAR(Me)K(Me2)STGGKAPRKQL-K(Biot)-NH2 [H3.1R8me1K9me2] |  | 0.138 | 0.5401 |  | 0.003186 | 0.001447 | 0.2455 | 0.001142 | 0.4249
ARTKQTAR(Me)K(Me3)STGGKAPRKQL-K(Biot)-NH2 [H3.1R8me1K9me3] |  | 0.156 | 0.8612 | 0.005418 | 0.03826 | 0.008113 | 0.4762 | 0.7313 | 0.134
ARTKQTARK(Me2)STGGK(Ac)APRKQL-K(Biot)-NH2 [H3.1K9me2K14ac] |  | 0.2875 | 0.7946 | 0.0003203 | 0.00428 | 0.01354 | 0.2985 | 0.00928 | 
Ac-TARK(Me2)STGGKAPRKQLATKAARK(Me2)SAP-Peg-K(Biot)-NH2 [H3.1K9me2K27me2] |  | 0.004725 | 0.9552 | 0.04684 | 0.009651 | 0.0002867 | 1 | 0.0006693 | 
PEPAKSAPAPKKGSK(Ac)KAVTKAQKK-Peg-Biot (chain 2 KAVTKAQKK-{Peg-Biot}; not fully specified; reading uncertain) [Peptide H2BK15ac] |  | 0.0005218 | 0.04671 |  | 0.004399 | 0.00117 | 0.05586 | 0.01254 | 
